In brackets after ≈: the same amount, converted by molar mass.
Tests used:
Plasmodium falciparum [1] = experiment: Antimalarial activity against Plasmodium falciparum Dd2; assay type: functional, organism-based
Plasmodium falciparum [2] = experiment: Antiplasmodial activity against chloroquine-resistant Plasmodium falciparum Fcb1; assay type: functional, organism-based
Plasmodium yoelii yoelii = experiment: Antimalarial activity against hepatic stage Plasmodium yoelii yoelii 265 BY for 48 hrs with media renew every 24 hrs; assay type: functional, organism-based
Plasmodium falciparum [3] = experiment: Antimalarial activity against blood stage chloroquine-sensitive Plasmodium falciparum NF54-R infected in erythrocytes assessed as reduction in parasite growth preincubated for 72 hrs followed by addition of [3H]Hypoxanthine and measured after 24 hrs by liquid scintillation counting method; assay type: functional, organism-based; conditions: Erythrocyte
Plasmodium falciparum [4] = experiment: Antimalarial activity against chloroquine-sensitive Plasmodium falciparum FCC1 measured after 48 hrs; assay type: functional, organism-based; conditions: FCC1, 48 h
Plasmodium falciparum [5] = experiment: Antimalarial activity against chloroquine-resistant Plasmodium falciparum VNS measured after 48 hrs; assay type: functional, organism-based
Plasmodium falciparum [6] = experiment: Antiplasmodial activity against chloroquine-sensitive Plasmodium falciparum FC measured after 48 hrs; assay type: functional
Plasmodium falciparum [7] = experiment: Antiplasmodial activity against chloroquine-resistant Plasmodium falciparum K1 measured after 48 hrs; assay type: functional
Plasmodium falciparum [8] = experiment: Antiplasmodial activity against chloroquine-sensitive Plasmodium falciparum FC measured after 96 hrs; assay type: functional
Plasmodium falciparum [9] = experiment: Antiplasmodial activity against chloroquine-sensitive Plasmodium falciparum K1 measured after 96 hrs; assay type: functional
Plasmodium falciparum [10] = experiment: Antiplasmodial activity against chloroquine-sensitive Plasmodium falciparum; assay type: functional, organism-based
Plasmodium falciparum [11] = experiment: Antiplasmodial activity against chloroquine-resistant Plasmodium falciparum; assay type: functional, organism-based
Plasmodium falciparum [12] = experiment: Antiplasmodial activity against synchronized Plasmodium falciparum CS2; assay type: functional, organism-based
Plasmodium falciparum [13] = experiment: Antiplasmodial activity against asynchronous Plasmodium falciparum CS2; assay type: functional, organism-based
Plasmodium falciparum [14] = experiment: Antiplasmodial activity against synchronized Plasmodium falciparum 3D7; assay type: functional, organism-based
Plasmodium falciparum [15] = experiment: Antiplasmodial activity against asynchronous Plasmodium falciparum 3D7; assay type: functional, organism-based
Plasmodium falciparum [16] = experiment: Antiplasmodial activity against synchronized Plasmodium falciparum K1; assay type: functional, organism-based
Plasmodium falciparum [17] = experiment: Antiplasmodial activity against asynchronous Plasmodium falciparum K1; assay type: functional, organism-based
Plasmodium falciparum [18] = experiment: Antimalarial activity against blood stage chloroquine-sensitive Plasmodium falciparum 3D7 infected in erythrocytes assessed as reduction in parasite growth preincubated for 72 hrs followed by addition of [3H]Hypoxanthine and measured after 24 hrs by liquid scintillation counting method; assay type: functional, organism-based; conditions: 3D7, Erythrocyte
Plasmodium falciparum [19] = experiment: Antiplasmodial activity against chloroquine-sensitive Plasmodium falciparum 3D7; assay type: functional, organism-based
Plasmodium falciparum [20] = experiment: Antiplasmodial activity against chloroquine-resistant Plasmodium falciparum W2; assay type: functional, organism-based
Plasmodium falciparum [21] = experiment: Antiplasmodial activity against chloroquine-resistant Plasmodium falciparum Palo Alto; assay type: functional, organism-based
Plasmodium falciparum [22] = experiment: Antiplasmodial activity against chloroquine-resistant Plasmodium falciparum FCR3; assay type: functional, organism-based
Plasmodium falciparum [23] = experiment: Antiplasmodial activity against chloroquine-resistant Plasmodium falciparum Bres1; assay type: functional, organism-based

| SMILES | IC50 (Plasmodium yoelii yoelii) [µg/mL] | IC50 (Plasmodium falciparum [3]) [µg/mL] | IC50 (Plasmodium falciparum [4]) [µM] | IC50 (Plasmodium falciparum [5]) [µM] | IC50 (Plasmodium falciparum [10]) [µg/mL] | IC50 (Plasmodium falciparum [11]) [µg/mL] | IC50 (Plasmodium falciparum [12]) [µM] | IC50 (Plasmodium falciparum [13]) [µM] | IC50 (Plasmodium falciparum [14]) [µM] | IC50 (Plasmodium falciparum [15]) [µM] | IC50 (Plasmodium falciparum [16]) [µM] | IC50 (Plasmodium falciparum [17]) [µM] | IC50 (Plasmodium falciparum [18]) [µg/mL] | IC50 (Plasmodium falciparum [19]) [µM] | IC50 (Plasmodium falciparum [20]) [µM] | IC50 (Plasmodium falciparum [21]) [µM] | IC50 (Plasmodium falciparum [22]) [µM] | further results |
| --- | --- | --- | --- | --- | --- | --- | --- | --- | --- | --- | --- | --- | --- | --- | --- | --- | --- | --- |
| COc1ccc2c(=O)c(-c3ccc(Oc4ccc(OC(F)(F)F)cc4)cc3)c(C)[nH]c2c1 |  |  |  |  |  |  |  |  |  |  |  |  |  |  |  |  |  | IC50 (Plasmodium falciparum [1]): 0.00385 µM |
| CC(C)=CCC/C(C)=C/CC/C(C)=C/Cc1c(C)[nH]c2ccccc2c1=O [AURACHIN D] |  |  |  |  |  |  |  |  |  |  |  |  |  |  |  |  |  | IC50 (Plasmodium falciparum [2]): 0.04 µg/mL (≈ 0.11 µM) |
| O=C(O)c1cn(C2CC2)c2cc(N3CCNCC3)c(F)cc2c1=O [CIPROFLOXACIN] | 44 (≈ 133 µM) | 3.4 (≈ 10.3 µM) | 260 | 380 | 6.38 (≈ 19.3 µM) | 6.38 (≈ 19.3 µM) | 20 | 24 | 31 | 31 | 32 | 38 |  |  |  |  |  | MIC (Plasmodium falciparum [6]): 28.1 µg/mL (≈ 84.8 µM); MIC (Plasmodium falciparum [7]): 27.2 µg/mL (≈ 82.1 µM); MIC (Plasmodium falciparum [8]): 2.8 µg/mL (≈ 8.45 µM); MIC (Plasmodium falciparum [9]): 4.4 µg/mL (≈ 13.3 µM) |
| CCn1cc(C(=O)O)c(=O)c2cc(F)c(N3CCNCC3)cc21 [NORFLOXACIN] | 17.8 (≈ 55.7 µM) | 6.7 (≈ 21 µM) | 620 | 510 | 11.2 (≈ 35.2 µM) | 11.2 (≈ 35.2 µM) | 59 | 55 | 55 | 66 | 67 | 54 | 17.2 (≈ 53.9 µM) | 55.3 | 74.6 | 54.1 | 58.6 |  |
| CC1COc2c(N3CCN(C)CC3)c(F)cc3c(=O)c(C(=O)O)cn1c23 (configuration not stated) [OFLOXACIN] | 64 (≈ 177 µM) | 58.6 (≈ 162 µM) | 1720 | 1770 | 22.3 (≈ 61.7 µM) | 22.3 (≈ 61.7 µM) |  |  |  |  |  |  | 113 (≈ 313 µM) | 152 | 112 | 114 | 158 | IC50 (Plasmodium falciparum [23]): 195 µM |
